From ChEMBL document CHEMBL1138036, “Simplified cyclic analogues of bastadin-5. Structure-activity relationships for modulation of the RyR1/FKBP12 Ca2+ channel complex” (J Med Chem, 2006) come the findings set out here.

pEC50, pIC50: −log10 of the molar value.

The first experiment addresses RyR1/FKBP12 (Oryctolagus cuniculus). Description: Agonist like activity at skeletal junction sarcoplasmic reticulum RyR1/FKBP12 complex assessed as increase in [3H]ryanodine binding.
Usually pEC50 stands for −log10 of the EC50, conventionally taken in molar units. For the compound `[N-]=[N+]=Nc1ccc(I)cc1C(=O)NCCCC[C@H]1CC(=O)NCCc2cc(Br)c(O)c(c2)Oc2cc(Br)c(cc2Br)CCC(=O)N1`, the pEC50 was 5.19.

As to `O=C1CCNC(=O)CCc2ccc(c([N+](=O)[O-])c2)Oc2cc(cc(Br)c2O)CCN1`, the pEC50 was 4.62.

`O=C1CCc2ccc(c([N+](=O)[O-])c2)Oc2cc(cc(Br)c2O)CCN1`: the pEC50 was 4.68.

In the case of `O=C1CCc2cc(Br)c(cc2Br)Oc2cc(cc(Br)c2O)CCN1`, the pEC50 was less than 4.00.

As to `O=C1CCc2ccc(cc2)Oc2cc(cc(Br)c2O)CCN1`, the pEC50 is less than 4.00.

Consider `Nc1cc2ccc1Oc1cc(cc(Br)c1O)CCNC(=O)CC2`, for which the pEC50 is 4.48.

On to `COC(=O)c1cc(I)ccc1N=[N+]=[N-]`, for which the pEC50 is less than 4.00.

Regarding `[N-]=[N+]=Nc1cc2ccc1Oc1cc(cc(Br)c1O)CCNC(=O)CCNC(=O)CC2`, the pEC50 is 4.70.

For the compound `[N-]=[N+]=Nc1ccc(I)cc1C(=O)NCCCC[C@H]1CC(=O)NCCc2cc(Br)c(O)c(c2)Oc2ccc(cc2Br)CCC(=O)N1`, the pEC50 is less than 4.00.

Take `O=C1CCc2ccc(c(Br)c2)Oc2cc(cc(Br)c2O)CCN1`: the pEC50 was 4.96.

On to `Nc1cc2ccc1Oc1cc(cc(Br)c1O)CCNC(=O)CCNC(=O)CC2`, for which the pEC50 is 4.68.

With `O=C1CCc2ccc(c(I)c2)Oc2cc(cc(Br)c2O)CCN1`, the pEC50 was 4.54.

Another experiment has the same target. Description: Antagonist like activity at skeletal junction sarcoplasmic reticulum RyR1/FKBP12 complex assessed as decrease in [3H]ryanodine binding.
For orientation: pIC50 means the IC50 on a negative log10 scale, so that one unit is a factor of ten. `[N-]=[N+]=Nc1cc2ccc1Oc1cc(cc(Br)c1O)CCNC(=O)CC2`: the pIC50 is 4.20.

As to `O=C1CCNC(=O)CCc2cc(Br)c(cc2Br)Oc2cc(cc(Br)c2O)CCN1`, the pIC50 was 4.33.
